Source: PubChem BioAssay (NCI)
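Five concentrations, 48 hours, 96-well plates. Here, GI50 denotes the concentration required for 50% inhibition of growth. The concentration for full growth arrest is given as TGI.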

Experiments:
Test in all cases: NCI tumour cell line growth inhibition, 48 h
786-0 renal = tested on: 786-0 renal
HCC-2998 colon = tested on: HCC-2998 colon
NCI/ADR-RES ovarian = tested on: NCI/ADR-RES ovarian
HCT-116 colon = tested on: HCT-116 colon
NCI-H460 lung = tested on: NCI-H460 lung
HT29 colon = tested on: HT29 colon
M14 melanoma = tested on: M14 melanoma
HCT-15 colon = tested on: HCT-15 colon
HS 578T breast = tested on: HS 578T breast
SN12C renal = tested on: SN12C renal
SF-268 CNS = tested on: SF-268 CNS
EKVX NSCLC = tested on: EKVX NSCLC
MDA-MB-435 = tested on: MDA-MB-435
SK-MEL-28 melanoma = tested on: SK-MEL-28 melanoma
SNB-75 CNS = tested on: SNB-75 CNS
NCI-H23 lung = tested on: NCI-H23 lung
SR leukemia = tested on: SR leukemia
PC-3 prostate = tested on: PC-3 prostate
SK-OV-3 ovarian = tested on: SK-OV-3 ovarian
UACC-257 melanoma = tested on: UACC-257 melanoma
SK-MEL-2 melanoma = tested on: SK-MEL-2 melanoma
OVCAR-8 ovarian = tested on: OVCAR-8 ovarian
HL-60(TB) leukemia = tested on: HL-60(TB) leukemia
K-562 leukemia = tested on: K-562 leukemia
U251 CNS = tested on: U251 CNS
HOP-62 NSCLC = tested on: HOP-62 NSCLC
TK-10 renal = tested on: TK-10 renal
RXF 393 renal = tested on: RXF 393 renal
MCF7 breast = tested on: MCF7 breast
OVCAR-4 ovarian = tested on: OVCAR-4 ovarian
RPMI-8226 leukemia = tested on: RPMI-8226 leukemia
CAKI-1 renal = tested on: CAKI-1 renal
UACC-62 melanoma = tested on: UACC-62 melanoma
MDA-MB-231 breast = tested on: MDA-MB-231 breast
SNB-19 CNS = tested on: SNB-19 CNS
SF-295 CNS = tested on: SF-295 CNS
MALME-3M melanoma = tested on: MALME-3M melanoma
SF-539 CNS = tested on: SF-539 CNS
DU-145 prostate = tested on: DU-145 prostate
NCI-H522 lung = tested on: NCI-H522 lung
OVCAR-3 ovarian = tested on: OVCAR-3 ovarian
COLO 205 colon = tested on: COLO 205 colon
CCRF-CEM leukemia = tested on: CCRF-CEM leukemia
OVCAR-5 ovarian = tested on: OVCAR-5 ovarian
LOX IMVI melanoma = tested on: LOX IMVI melanoma
BT-549 breast = tested on: BT-549 breast
UO-31 renal = tested on: UO-31 renal
ACHN renal = tested on: ACHN renal
NCI-H226 lung = tested on: NCI-H226 lung
MOLT-4 leukemia = tested on: MOLT-4 leukemia
A549 NSCLC = tested on: A549 NSCLC
IGROV1 ovarian = tested on: IGROV1 ovarian
SK-MEL-5 melanoma = tested on: SK-MEL-5 melanoma
A498 renal = tested on: A498 renal
HOP-92 NSCLC = tested on: HOP-92 NSCLC
KM12 colon = tested on: KM12 colon
SW-620 colon = tested on: SW-620 colon

CNCCC/C=C1\c2cc3c(cc2-c2c1c1cc(OC)c(OC)cc1c(=O)n2C)OCO3
GI50 (786-0 renal): 259 nM
TGI (786-0 renal): 2310 nM
GI50 (HCC-2998 colon): 226 nM
TGI (HCC-2998 colon): 2470 nM
GI50 (NCI/ADR-RES ovarian): 1530 nM
TGI (NCI/ADR-RES ovarian): 10300 nM
GI50 (HCT-116 colon): 399 nM
TGI (HCT-116 colon): 1900 nM
GI50 (NCI-H460 lung): 331 nM
GI50 (HT29 colon): 658 nM
TGI (HT29 colon): 12000 nM
GI50 (M14 melanoma): 1140 nM
TGI (M14 melanoma): 9400 nM
GI50 (HCT-15 colon): 1150 nM
TGI (HCT-15 colon): 6770 nM
GI50 (HS 578T breast): 3170 nM
TGI (HS 578T breast): 30300 nM
GI50 (SN12C renal): 858 nM
TGI (SN12C renal): 5310 nM
GI50 (SF-268 CNS): 521 nM
TGI (SF-268 CNS): 10000 nM
GI50 (EKVX NSCLC): 1310 nM
TGI (EKVX NSCLC): 5700 nM
GI50 (MDA-MB-435): 1960 nM
TGI (MDA-MB-435): 13400 nM
GI50 (SK-MEL-28 melanoma): 1400 nM
TGI (SK-MEL-28 melanoma): 7990 nM
GI50 (SNB-75 CNS): 1260 nM
TGI (SNB-75 CNS): 11900 nM
GI50 (NCI-H23 lung): 1070 nM
TGI (NCI-H23 lung): 5310 nM
GI50 (SR leukemia): 211 nM
TGI (SR leukemia): 581 nM
GI50 (PC-3 prostate): 1120 nM
TGI (PC-3 prostate): 10600 nM
GI50 (SK-OV-3 ovarian): 1870 nM
GI50 (UACC-257 melanoma): 3090 nM
TGI (UACC-257 melanoma): > 100000 nM
GI50 (SK-MEL-2 melanoma): 6920 nM
TGI (SK-MEL-2 melanoma): > 42400 nM
GI50 (OVCAR-8 ovarian): 2460 nM
TGI (OVCAR-8 ovarian): 19800 nM
GI50 (HL-60(TB) leukemia): 2220 nM
TGI (HL-60(TB) leukemia): 12000 nM
GI50 (K-562 leukemia): 493 nM
TGI (K-562 leukemia): 5870 nM
GI50 (U251 CNS): 305 nM
TGI (U251 CNS): 4030 nM
GI50 (HOP-62 NSCLC): 590 nM
TGI (HOP-62 NSCLC): 3970 nM
GI50 (TK-10 renal): 1830 nM
TGI (TK-10 renal): 9830 nM
GI50 (RXF 393 renal): 105 nM
TGI (RXF 393 renal): 958 nM
GI50 (MCF7 breast): 244 nM
TGI (MCF7 breast): 813 nM
GI50 (OVCAR-4 ovarian): 7990 nM
TGI (OVCAR-4 ovarian): 44300 nM
GI50 (RPMI-8226 leukemia): 1240 nM
TGI (RPMI-8226 leukemia): 7940 nM
GI50 (CAKI-1 renal): 269 nM
TGI (CAKI-1 renal): 1480 nM
GI50 (UACC-62 melanoma): 248 nM
TGI (UACC-62 melanoma): 1380 nM
GI50 (MDA-MB-231 breast): 1030 nM
TGI (MDA-MB-231 breast): 5310 nM
GI50 (SNB-19 CNS): 883 nM
TGI (SNB-19 CNS): 24700 nM
GI50 (SF-295 CNS): 322 nM
TGI (SF-295 CNS): 2270 nM
GI50 (MALME-3M melanoma): 807 nM
TGI (MALME-3M melanoma): 5980 nM
GI50 (SF-539 CNS): 144 nM
TGI (SF-539 CNS): 558 nM
GI50 (DU-145 prostate): 1070 nM
TGI (DU-145 prostate): 5500 nM
GI50 (NCI-H522 lung): 611 nM
GI50 (OVCAR-3 ovarian): 985 nM
TGI (OVCAR-3 ovarian): 4120 nM
GI50 (COLO 205 colon): 1130 nM
GI50 (CCRF-CEM leukemia): 843 nM
TGI (CCRF-CEM leukemia): 10900 nM
GI50 (OVCAR-5 ovarian): 1380 nM
TGI (OVCAR-5 ovarian): 8890 nM
GI50 (LOX IMVI melanoma): 322 nM
TGI (LOX IMVI melanoma): 1740 nM
GI50 (BT-549 breast): 455 nM
TGI (BT-549 breast): 4330 nM
GI50 (UO-31 renal): 750 nM
GI50 (ACHN renal): 245 nM
TGI (ACHN renal): 1040 nM
GI50 (NCI-H226 lung): 509 nM
TGI (NCI-H226 lung): 2090 nM
GI50 (MOLT-4 leukemia): 137 nM
TGI (MOLT-4 leukemia): 405 nM
GI50 (A549 NSCLC): 1310 nM
TGI (A549 NSCLC): > 24500 nM
GI50 (IGROV1 ovarian): 487 nM
GI50 (SK-MEL-5 melanoma): 435 nM
TGI (SK-MEL-5 melanoma): 1690 nM
GI50 (A498 renal): < 32.7 nM
TGI (A498 renal): 341 nM
GI50 (HOP-92 NSCLC): 347 nM
TGI (HOP-92 NSCLC): 5430 nM
GI50 (KM12 colon): 1920 nM
TGI (KM12 colon): 18100 nM
GI50 (SW-620 colon): 793 nM
TGI (SW-620 colon): 19500 nM
